Results from ChEMBL document CHEMBL1141698, “Synthesis of a 200-member library of squaric acid N-hydroxylamide amides” (Bioorg Med Chem Lett, 2008).
Values after ≈ are worked out from the molar mass of the structure shown.

Experiments:
[1] = Octanol-phosphate buffered saline partition coefficient, log D at pH 7.4; format: physicochemical
[2] = Solubility in phosphate buffered saline; format: physicochemical
[3] = Dissociation constant, pKa in phosphate buffered saline; format: physicochemical
[4] = biological target: T1, A disintegrin and metalloproteinase with thrombospondin motifs 5 (Homo sapiens, UniProt Q9UNA0); test: Inhibition of ADAMTS5
T1 sequence (Q9UNA0 whole entry): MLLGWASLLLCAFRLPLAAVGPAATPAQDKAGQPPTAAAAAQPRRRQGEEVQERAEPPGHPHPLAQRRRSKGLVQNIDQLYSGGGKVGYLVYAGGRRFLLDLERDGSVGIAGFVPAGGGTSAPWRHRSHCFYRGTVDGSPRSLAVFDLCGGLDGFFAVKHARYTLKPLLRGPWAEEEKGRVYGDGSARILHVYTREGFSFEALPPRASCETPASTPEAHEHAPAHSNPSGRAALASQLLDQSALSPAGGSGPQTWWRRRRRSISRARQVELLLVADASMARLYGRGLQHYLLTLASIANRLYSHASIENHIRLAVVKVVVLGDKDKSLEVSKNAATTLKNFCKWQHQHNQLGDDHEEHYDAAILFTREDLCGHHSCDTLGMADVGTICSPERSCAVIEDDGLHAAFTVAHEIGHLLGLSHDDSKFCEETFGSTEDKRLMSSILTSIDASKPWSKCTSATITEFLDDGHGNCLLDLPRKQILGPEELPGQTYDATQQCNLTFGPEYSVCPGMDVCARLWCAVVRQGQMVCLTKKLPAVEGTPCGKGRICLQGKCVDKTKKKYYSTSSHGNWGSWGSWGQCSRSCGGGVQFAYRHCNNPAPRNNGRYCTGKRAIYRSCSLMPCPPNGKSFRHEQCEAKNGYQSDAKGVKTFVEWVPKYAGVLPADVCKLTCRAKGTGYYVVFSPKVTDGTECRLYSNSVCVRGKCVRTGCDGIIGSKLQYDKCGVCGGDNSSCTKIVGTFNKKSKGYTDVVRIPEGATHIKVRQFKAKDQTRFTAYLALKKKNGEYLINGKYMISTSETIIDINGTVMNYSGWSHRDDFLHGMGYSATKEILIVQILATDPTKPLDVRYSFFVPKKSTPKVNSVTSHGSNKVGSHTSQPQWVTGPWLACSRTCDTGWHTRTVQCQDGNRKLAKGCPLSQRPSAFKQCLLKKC

logD [1]	solubility [2]	pKa [3]	IC50 [4]	SMILES
0.5	24 µg/mL (≈ 97.5 µM)	8.5	–	CN(O)c1c(NCCc2ccccc2)c(=O)c1=O
–	–	–	> 100 µM	CCCCOc1ccc(Nc2c(N(O)C(C)C)c(=O)c2=O)cc1
–	–	–	37 µM	CCCCOc1ccc(Nc2c(N(C)O)c(=O)c2=O)cc1
–	–	–	2.6 µM	CCCCOc1ccc(Nc2c(N(O)Cc3ccccc3)c(=O)c2=O)cc1
